Assay results published in US11015179B2, “Peptide having anti-viral effect and composition containing same” (priority 2015, dated 2021).

How the values were obtained:
[1] = system: HBV; assay: Antiviral effect with HSP90 blockage in whole HBV wild-type genome-transfected HepG2 cell line (real-time quantitative PCR); format: cell-based, hepatitis B virus; conditions: HepG2, ETV 30 nM, 24 hours
Method: PEP1 has been known to pass through a cell membrane from the outside to the inside of the cells in a shuttle method via HSP90. To confirm if the antiviral effect is reduced in cells by blocking the HSP90 activity based on such a mechanism, in this research, a HepG2 cell line was transiently transfected with the whole HBV wild-type genome, treated with anti-GAPDH, anti-HSP (1 ug/ml, blockage of HSP90 activity) and 17-AAG (1 μM) for 1 hour, ant then with PBS (0.5%), entecavir (ETV, 30 nM) and PEP1 (5 μM) for 24 hours. Subsequently, the supernatant was collected and treated with PEG6000 to precipitate the virus, and viral DNA was extracted and subjected to real-time quantitative PCR to observe an antiviral effect. All experiments are independently performed in triplicate, and a statistical significance test was performed using one-way ANOVA through the Tukey's Multiple Comparison Test. ** p<0.05 versus PBS, and ## p<0.05 versus None.

[2] = system: HBV; format: in vivo, mice; conditions: caudal vein twice a week; PEP1 50 μg/kg, 3TC 500 μg/kg
Method: HBV transgenic mice were prepared by injecting a 1.1-fold HBV base sequence comprising a full open reading frame (ORF) into the fertilized eggs of the mice through microinjection. The base sequence of HBV used in the research was obtained using a pHY92-W4P plasmid. The pHY92-W4P plasmid was digested with EcoRi before injection into the fertilized eggs of the mice, and finally a base sequence of 3.9 kb in length was used for microinjection. Produced subjects were selected through PCR using a specific sequence of HBsAg. PCR-positive subjects were selected according to the concentrations of serum HBsAg and HBeAg, and finally used as PCR-positive, HBsAg-positive, and HBeAg-positive mice in the study. These mice were backcrossed with C57BL/6 mice to produce heterologous HBV transgenic mice.
HBsAg levels in the HBV-transgenic mice were determined using an HBsAg ELISA kit (BIOKIT, Germany). To quantify HBV titers, total DNA was extracted and confirmed by real-time PCR.
In addition, HBV virion DNA was obtained from mouse serum and subjected to real-time PCR.

[3] = system: HBV; assay: Virion production (real-time PCR of HBV DNA) in W4P-transfected Huh7 cell line; format: cell-based, hepatitis B virus; conditions: Huh7, 10 μM, 48 hours
Method: (§1) To observe the potential for virion proliferation of whole HBV containing W4P, virion DNA was extracted from the entire supernatant while the medium was changed every 24 hours by the above-described method, and subjected to real-time quantitative PCR using a Quantitech SYBR Green Master-Mix kit (Qiagen). The entire supernatant was centrifuged using an ultracentrifuge equipped with an SW28 swing rotor at 20,000 rpm for 2 hours to precipitate the virus, and the precipitated viral pellets were suspended with 200 μl of sterilized DW. […] Real-time PCR was performed at 40 cycles of 5 min at 95° C., 15 sec at 94° C., and 15 sec at 60° C. using the Exicycler™ 96 Real-Time Quantitative Thermal Block System (Bioneer Co., Korea), and the temperature was increased from 53° C. to 90° C. by modulating to 0 sec at 95° C., 30 sec at 53° C. and modulating by 0.1° C. per second to analyze a melting curve.
(§2) To observe the virion production in the supernatant after the inhibition of HBsAg secretion by the PEP1 peptide was observed, virions were collected from the supernatant obtained by the above-described method using PEG 6000, and HBV DNA was obtained using a virus DNA prep kit (Intron, Korea), and then quantified by real-time PCR.

[4] = system: macrophages; assay: Differentiation of macrophages (FACS) in whole HBV W4P genome-transgenic mice; format: in vivo; conditions: eight weeks; PEP1 50 μg/kg, 3TC 500 μg/kg; vs PBS
Method: Therefore, to observe if the PEP1 peptide is able to differentiate macrophages to M1, eight weeks after PBS, 50 μg/kg of the PEP1 peptide and 500 μg/kg of 3TC were injected into the caudal vein of each of transgenic mice prepared by injecting the whole HBV W4P variant genome twice a week, the whole blood was collected from the mouse and a kidney of the mouse was extracted, immune cells were isolated and stained with a macrophage marker (F4/80) and M1 marker MHCII through an extracellular cell surface staining method. Afterward, FACS analysis was carried out.

[5] = system: HBV; assay: Virion production (real-time PCR of HBV DNA) in W4P-transfected HepG2 cell line; format: cell-based, hepatitis B virus
Method: as §1
as §2, with “PCR. […]” for “PCR.”

[6] = system: HBV; assay: HBsAg ELISA in whole HBV W4P genome-transfected HepG2 cell line; format: cell-based, hepatitis B virus; conditions: 48 hours
[7] = system: IL-6; assay: IL-6 ELISA in culture supernatant of W4P-transfected Huh7 cell line; format: cell-based, human; conditions: Huh7, 10 μM, 48 hours
Method: It has been reported that HBV preS1 W4P variants are closely related to production of IL-6, which is an inflammation regulatory cytokine. Therefore, to observe an anti-inflammatory effect of PEP1 in IL-6-induced cell lines, 48 hours after the whole HBV W4P genome was injected into HepG2 and Huh7 cell lines which were then treated with 10 μM PEP1 and 10 μM 3TC, respectively, IL-6 levels in the culture supernatants were observed through ELISA.

[8] = system: HSP 90, SOD, ERK, JAK2; assay: Liver protein expression (western blotting) in whole HBV W4P genome-transgenic mice; format: in vivo; conditions: week 8; PEP1 50 μg/kg, 3TC 500 μg/kg
Method: To observe a change in protein expression affecting the antiviral effect by the PEP1 peptide, transgenic mice prepared by injecting the whole HBV W4P variant genome were used. The PEP1 peptide was injected into the caudal vein of the mouse at a concentration of 50 μg/kg twice a week. As a control group, 500 μg/kg of 3TC was injected like the PEP1 peptide. On week 8, the whole blood was collected from the mouse, and proteins were extracted from the liver of the mouse and subjected to western blotting to observe expression of the proteins.

[9] = system: immune cells; assay: Distribution of immune cells (FACS) in whole HBV W4P genome-transgenic mice; format: in vivo; conditions: 3TC
Method: PEP1 is an HLA Class II-binding peptide derived from telomerase, and a 16-amino acid peptide triggering cytotoxic T-cell and helper T-cell immune responses. Therefore, to observe a change in the distribution of renal immune cells by the PEP1 peptide, transgenic mice were prepared by injecting the whole HBV W4P variant genome, on week 4, the whole blood was collected from the mice, and immune cells were isolated from the kidneys of the mice and then stained with lymphocyte markers (B cells (CD19B), CD4, CD8, NK1.1 cells) and myeloid cell markers (DC (CD11c), a macrophage marker (F4/80), a neutrophil marker (Ly-6G), a monocyte marker (Gr1)) according to an extracellular cell surface staining method for FACS analysis.

[10] = system: INFγ; assay: INFγ activity of immune cells (FACS) in whole HBV W4P genome-transgenic mice; format: in vivo; conditions: 8 weeks; PEP1 50 μg/kg, 3TC 500 μg/kg; HBsAg stimulation 72 hours
Method: INF, which is a hormone-like cytokine, is secreted from immune cells against a virus. INFs are present in three types such as α, β and γ, and among these, INFγ is known to be critical for inhibiting the hepatitis B virus (HBV) in humans. Therefore, to observe the activity of INFγ, as an immune response, by the PEP1 peptide, 8 weeks after 50 μg/kg of the PEP1 peptide and 500 μg/kg of 3TC were injected into the caudal vein of each of transgenic mice prepared by injection of the whole HBV W4P variant genome twice a week, the whole blood was collected and a kidney was extracted from the mouse, and then immune cells were isolated and treated with HBsAg for stimulation. Seventy two hours after the stimulation, the INFγ cytokine was accumulated in cells by Brefeldin A and stained by an intracellular staining method for FACS analysis.

Row | Compound | Antiviral effect in untreated cells or cells treated with GAPDH, HSP90 or 17-AAG [1] | Level of HBsAg in serum, reduction effect on week 8 [2] | Level of HBsAg in serum, up to 4 weeks [2] | Serum virion level, inhibitory effect on week 8 [2] | Serum virion level, week 4 [2] | Virions produced in the supernatant [3] | Distribution of macrophages among myeloid-derived cells [4] | Number of cells differentiated to M1 [4] | Virions produced in the supernatant ([5]; HepG2, 10 μM, 48 hours) | Virion synthesis according to concentration ([5]; HepG2, 3TC) | HBsAg inhibitory effect vs control group ([6]; 3TC 10 μM, cell line not specified (Huh7, Huh7.5, HepG2 tested)) | HBsAg in both pellets and supernatants ([6]; HepG2, 3TC 0.01-100 μM) | IL-6 level in culture supernatant [7] | JAK2 phosphorylation in liver [8] | Protein phosphorylation of ERK in liver [8] | Distribution of immune cells [9] | INFγ activity of CD4, CD8 and NK1.1 cells [10]
1 | C=C1[C@H](CO)[C@@H](O)C[C@@H]1n1cnc2c(=O)[nH]c(N)nc21 [ETV, entecavir] | no difference in the antiviral effect |  |  |  |  |  |  |  |  |  |  |  |  |  |  |  | 
2 | Nc1ccn([C@@H]2CS[C@H](CO)O2)c(=O)n1 [3TC, ramivudine] |  | no such effect | neither the PEP1 peptide nor 3TC showed a reduction effect | approximately 52% | did not show virion inhibitory effects | inhibitory effect | did not show a difference | did not show a difference | inhibitory effect | has an inhibitory effect on virion synthesis according to concentration | exhibited higher inhibitory effects than the control group | showed inhibitory effects according to concentration | no effect on production of IL-6 cytokine | inhibited phosphorylation | inhibited phosphorylation | did not have an influence on the distribution of immune cells | slightly increased activity
